Test results published in patent publication US4778816A, “Anti-asthmatic composition and process for preparing the same” (Wakamoto Pharmaceutical Co., Ltd., priority 1984, dated 1988).

Tests used:
[1] = system: release of histamine; assay: Inhibitory effect on the release of histamine from guinea pig lung slices (Test Example 1); assay type: cell-based; settings: for Histamine release-inhibition rate: average of three measurements
[2] = system: release of SRS-A; assay: Inhibitory effect on the release of SRS-A from guinea pig lung slices (Test Example 1); assay type: cell-based; settings: for SRS-A release-inhibition rate: average of three measurements
[3] = system: release of histamine; assay: Inhibitory effect on the release of histamine from rhesus monkey lung slices (Test Example 2); assay type: cell-based; settings: average of three measurements
Description: (§1) Inhibitory effect of MTB on the release of histamine and SRS-A from rhesus monkey lung slices
(§2) Rhesus monkey lungs were cut into slices, which were passively sensitized with human atopy blood serum.
(§3) Thereafter the test was conducted in the same manner as in Test Example 1 to compare the histamine and SRS-A release-inhibition effect of the present medicine MTB with that of the known medicine DSCG.

[4] = system: release of SRS-A; assay: Inhibitory effect on the release of SRS-A from rhesus monkey lung slices (Test Example 2); assay type: cell-based; settings: average of three measurements
Description: as §1, §2, §3

[5] = system: release of histamine; assay: Inhibitory effect on the release of histamine from human lung slices (Test Example 3); assay type: cell-based; settings: average of three measurements
Description: (§4) Inhibitory effect of MTB on the release of histamine and SRS-A from human lung slices
(§5) A macrographically normal portion was sampled from a human lung excised in a lung cancer operation and was passively sensitized with human atopy blood serum in a similar manner to the case of the rhesus monkey lung slices mentioned above. Thereafter the histamine and SRS-A release-inhibiting effect of the test medicines was measured in the same manner as in Test Example 1.

[6] = system: release of SRS-A; assay: Inhibitory effect on the release of SRS-A from human lung slices (Test Example 3); assay type: cell-based; settings: average of three measurements
Description: as §4, §5

[7] = system: experimental asthma; assay: Effect of preventing experimental asthma (Test Example 4); assay type: in vivo, guinea pig; settings: 250 mg/kg oral; for Tidal volume-decrease rate: 60 min before causing asthma, average of seven
[8] = Acute toxicity in mouse; set-up: species or system Mouse (ddy); settings: in vivo, read-out: Acute toxicity LD 50
Text: (§6) Animals tested were as follows.
Mouse: ddy, weight 20-23 g, 20 mice per group

[9] = Acute toxicity in rat; set-up: species or system Rat (wistar); settings: in vivo, read-out: Acute toxicity LD 50
Text: as §6
Rat: wistar, weight 110-130 g 10 rats per group

[10] = Acute toxicity in dog; assay type: in vivo, Dog (beagle); settings: in vivo, po; dog male, p.o.; read-out: Acute toxicity LD 50
Text: as §6
(§7) Dog: beagle, weight 8 kg, 3 dogs per group

[11] = system: Dog; assay: Acute toxicity in dog; assay type: in vivo, Dog (beagle); settings: dog female, p.o.
Text: as §6, §7

[12] = Solubility of MTB original powder in water; assay type: physicochemical
[13] = Differential thermal scanning calorimeter measurement of crystal structure; assay type: physicochemical; settings: DSC 30 type, Shimadzu
Text: From this observation, it has been confirmed that the treatment with the non-aqueous solvent in the new preparation process not only increases the mixing efficiency but also brings about a change in the crystal structure itself of MTB.

[14] = system: release of histamine; settings: Japanese Journal of Pharmacology, Vol. 32, pages 689-697, 1982; cited from earlier work

Compound: O=C(O)c1cc(=O)c2c(OCC(O)COc3cccc4oc(C(=O)O)cc(=O)c34)cccc2o1 [DSCG, disodium cromoglicate, reference compound]
- Histamine release-inhibition rate ([1]; 10^-4 g/ml): 2%
- Histamine release-inhibition rate ([1]; 10^-5 g/ml): 0%
- SRS-A release-inhibition rate ([2]; 10^-4 g/ml): 13%
- SRS-A release-inhibition rate ([2]; 10^-5 g/ml): 9%
- Histamine release-inhibition rate ([3]; 10^-4 g/ml): 0%
- Histamine release-inhibition rate ([3]; 10^-5 g/ml): 0%
- SRS-A release-inhibition rate ([4]; 10^-4 g/ml): 2%
- SRS-A release-inhibition rate ([4]; 10^-5 g/ml): 0%
- Histamine release-inhibition rate ([5]; 10^-4 g/ml): 18%
- Histamine release-inhibition rate ([5]; 10^-5 g/ml): 13%
- SRS-A release-inhibition rate ([6]; 10^-4 g/ml): 39%
- SRS-A release-inhibition rate ([6]; 10^-5 g/ml): 41%

Compound: CCCCOC(=O)C(=O)Nc1cccc(-c2nnn[nH]2)c1 [MTB, 5-(3-n-butyloxalyl-aminophenyl) tetrazole]
- histamine release-inhibition rate compared with DSCG and N-5' (in words) [1]: remarkably high
- Histamine release-inhibition rate ([1]; 10^-4 g/ml): 37%
- Histamine release-inhibition rate ([1]; 10^-5 g/ml): 30%
- Histamine release-inhibition rate ([1]; 10^-6 g/ml): 14%
- Histamine release-inhibition rate ([1]; 10^-7 g/ml): 6%
- Histamine release-inhibition rate ([1]; 10^-8 g/ml): 8%
- SRS-A release-inhibition rate compared with DSCG and N-5' (in words) [2]: remarkably high
- SRS-A release-inhibition rate ([2]; 10^-4 g/ml): 64%
- SRS-A release-inhibition rate ([2]; 10^-5 g/ml): 66%
- SRS-A release-inhibition rate ([2]; 10^-6 g/ml): 49%
- SRS-A release-inhibition rate ([2]; 10^-7 g/ml): 28%
- SRS-A release-inhibition rate ([2]; 10^-8 g/ml): 2%
- Histamine release-inhibition rate ([3]; 10^-4 g/ml): 27%
- Histamine release-inhibition rate ([3]; 10^-5 g/ml): 2%
- Histamine release-inhibition rate ([3]; 10^-6 g/ml): 12%
- Histamine release-inhibition rate ([3]; 10^-7 g/ml): 0%
- SRS-A release-inhibition rate ([4]; 10^-4 g/ml): 16%
- SRS-A release-inhibition rate ([4]; 10^-5 g/ml): 17%
- SRS-A release-inhibition rate ([4]; 10^-6 g/ml): 18%
- SRS-A release-inhibition rate ([4]; 10^-7 g/ml): 0%
- Histamine release-inhibition rate ([5]; 10^-4 g/ml): 27%
- Histamine release-inhibition rate ([5]; 10^-5 g/ml): 23%
- Histamine release-inhibition rate ([5]; 10^-6 g/ml): 23%
- Histamine release-inhibition rate ([5]; 10^-7 g/ml): 8%
- Histamine release-inhibition rate ([5]; 10^-8 g/ml): 0%
- SRS-A release-inhibition rate ([6]; 10^-4 g/ml): 47%
- SRS-A release-inhibition rate ([6]; 10^-5 g/ml): 47%
- SRS-A release-inhibition rate ([6]; 10^-6 g/ml): 43%
- SRS-A release-inhibition rate ([6]; 10^-7 g/ml): 31%
- SRS-A release-inhibition rate ([6]; 10^-8 g/ml): 2%
- Tidal volume-decrease rate ([7]; 0 min): 0%
- decrease in unit tidal volume compared with control and N-5' (in words) [7]: remarkably low rate of decrease in unit tidal volume
- Tidal volume-decrease rate ([7]; 1 min): 17%
- Tidal volume-decrease rate ([7]; 2 min): 17%
- Tidal volume-decrease rate ([7]; 3 min): 21%
- Tidal volume-decrease rate ([7]; 4 min): 23%
- Tidal volume-decrease rate ([7]; 5 min): 21%
- Tidal volume-decrease rate ([7]; 6 min): 22%
- Tidal volume-decrease rate ([7]; 8 min): 21%
- Tidal volume-decrease rate ([7]; 10 min): 21%
- Tidal volume-decrease rate ([7]; 15 min): 14%
- Tidal volume-decrease rate ([7]; 20 min): 19%
- Tidal volume-decrease rate ([7]; 30 min): 15%
- LD50 ([8]; ip, mouse female, i.p.): 1160 mg/kg
- LD50 ([8]; ip, mouse male, i.p.): 1120 mg/kg
- LD50 ([8]; iv, mouse female, i.v.): 1220 mg/kg
- LD50 ([8]; iv, mouse male, i.v.): 1130 mg/kg
- LD50 ([8]; po, mouse female, p.o.): > 4000 mg/kg
- LD50 ([8]; po, mouse male, p.o.): > 4000 mg/kg
- LD50 ([8]; sc, mouse female, s.c.): > 4000 mg/kg
- LD50 ([8]; sc, mouse male, s.c.): > 4000 mg/kg
- LD50 ([9]; ip, rat female, i.p.): 1430 mg/kg
- LD50 ([9]; ip, rat male, i.p.): 1430 mg/kg
- LD50 ([9]; iv, rat female, i.v.): 1160 mg/kg
- LD50 ([9]; iv, rat male, i.v.): 1110 mg/kg
- LD50 ([9]; po, rat female, p.o.): > 4000 mg/kg
- LD50 ([9]; po, rat male, p.o.): > 4000 mg/kg
- LD50 ([9]; sc, rat female, s.c.): > 4000 mg/kg
- LD50 ([9]; sc, rat male, s.c.): > 4000 mg/kg
- LD50 [10]: > 4000 mg/kg
- Acute toxicity LD 50 [11]: > 4000 mg/kg
- solubility in water (in words) [12]: practically insoluble in water
- peak of absorption indicating the crystal structure (DSC) [13]: shows a peak of absorption indicating the crystal structure
- anti-allergic action (in words) [14]: anti-allergic action, inhibiting the release of histamine

Compound: COc1ccc(/C=C/C(=O)Nc2ccccc2C(=O)O)cc1OC [N-5', tranilast, reference compound]
- Histamine release-inhibition rate ([1]; 10^-4 g/ml): 16%
- Histamine release-inhibition rate ([1]; 10^-5 g/ml): 5%
- SRS-A release-inhibition rate ([2]; 10^-4 g/ml): 54%
- SRS-A release-inhibition rate ([2]; 10^-5 g/ml): 11%
- Histamine release-inhibition rate ([5]; 10^-4 g/ml): 31%
- Histamine release-inhibition rate ([5]; 10^-5 g/ml): 16%
- SRS-A release-inhibition rate ([6]; 10^-4 g/ml): 37%
- SRS-A release-inhibition rate ([6]; 10^-5 g/ml): 32%
- Tidal volume-decrease rate ([7]; 0 min): 0%
- Tidal volume-decrease rate ([7]; 1 min): 26%
- Tidal volume-decrease rate ([7]; 2 min): 24%
- Tidal volume-decrease rate ([7]; 3 min): 24%
- Tidal volume-decrease rate ([7]; 4 min): 26%
- Tidal volume-decrease rate ([7]; 5 min): 23%
- Tidal volume-decrease rate ([7]; 6 min): 25%
- Tidal volume-decrease rate ([7]; 8 min): 28%
- Tidal volume-decrease rate ([7]; 10 min): 24%
- Tidal volume-decrease rate ([7]; 15 min): 27%
- Tidal volume-decrease rate ([7]; 20 min): 22%
- Tidal volume-decrease rate ([7]; 30 min): 19%
